Laboratory results reported in US4027039A (priority 1975, dated 1977).
Where two headings read alike, the source gives them in different places.

Tests used:
[1] = test system: Influenza A PR8 virus; parameters: toxicity at upper limit: dose or concentration left out as unconfirmed; details: cited from earlier work
[2] = test system: polio and Vaccinia virus; details: cytopathic effect; cited from earlier work
[3] = test system: Herpes virus
[4] = test system: cells; assay: Plaque reduction and cytotoxicity in cells; format: cell-based
Excerpt: It is well known in virology that cells injured due to toxic substances will not support the growth of viruses.

Row | Compound | toxicity at upper limit [1] | inhibition ([1]; lower limit, 0.125 mg per ml) | concentrations with antiviral activity [2] [µg/mL] | No. animals surviving after 6-9 days ([3]; total dose 5 μg) | No. animals surviving after 6-9 days ([3]; total dose .0005 μg) | No. animals surviving when 100% (or given fraction) of controls are dead ([3]; total dose .0005 μg) | Survivors ([3]; total dose .0005 μg) | No. animals surviving after 6-9 days ([3]; total dose .005 μg) | No. animals surviving when 100% (or given fraction) of controls are dead ([3]; total dose .005 μg) | Survivors ([3]; total dose .005 μg) | No. animals surviving after 6-9 days ([3]; total dose .05 μg) | No. animals surviving when 100% (or given fraction) of controls are dead ([3]; total dose .05 μg) | Survivors ([3]; total dose .05 μg) | No. animals surviving after 6-9 days ([3]; total dose .5 μg) | Survivors ([3]; total dose .5 μg) | toxic effects on the cells ([4]; 10 to 100 mg/ml) | antiviral activity, plaque reduction ([4]; below the level of toxicity)
1 | CC(C=NNC(=N)N)=NNC(=N)N [Methylgloxal-bis-guanylhydrazone] | toxic | Ninety |  |  |  |  |  |  |  |  |  |  |  |  |  |  | 
2 | NN.O=S(=O)(O)O [Hydrazine Sulfate, hydrazine sulfate] |  |  | 8 to 66 | 3 | 3 | 3 | 3 | 4 | 4 | 4 | 1 | 1 | 0 | 3 | 1 | toxic effects on the cells were clearly evident | no antiviral activity was demonstrated
